For 19 molecules, IC50 results are on record in PMC12150293 (RSC Advances, 2025).

In assay [1] the test system is MDA-MB-231 cells. In words: MTT cytotoxicity assay on breast cancer cells. As to conditions: read-out: MDA-MB-231 IC50. A general note: Tetrazolium assays rely on reduction of a dye to a coloured formazan, in cell work by metabolically active cells.
The test system of assay [2] is A549 cells. In words: MTT cytotoxicity assay on non-small cell lung cancer cells. The conditions noted are these: read-out: A549 IC50.
Assay [3] deals with BEAS-2B cells. The assay can be described thus: MTT cytotoxicity assay on normal human lung epithelial cells. The conditions noted are these: 48 h, read-out: BEAS-2B IC50.

Like-named read-outs stand apart in the source and are kept apart here.

One may read the IC50 as the concentration at which inhibition is half-maximal. With `N.N.[Cl][Pt][Cl]` [Cisplatin, cisplatin, reference compound], the IC50 in assay [1] (MTT assay, 48 h, mean ± SEM) was determined as 12.2 ± 0.8 µM; in assay [2] (MTT assay, 48 h, mean ± SEM) it was 10.1 ± 0.7 µM.
With `O=c1[nH]cc(F)c(=O)[nH]1` [Compound 5-FU, 5-fluorouracil, reference compound], the IC50 was 14.4 ± 0.9 µM in assay [1] (Homo sapiens, MDA-MB-231, 48 h); 11.3 ± 1.1 µM in assay [2] (Homo sapiens, A549, 48 h); 7.2 ± 0.5 µM in assay [3].
As to `Cc1ccc(N(C(=O)c2ccccc2Cl)C(C(=O)Nc2ccc([N+](=O)[O-])cc2)c2ccc(C(F)(F)F)cc2)cc1` (centres unmarked) [Compound 6, 2-Chloro-N-(2-((4-nitrophenyl)amino)-2-oxo-1-(4-(trifluoromethyl)phenyl)-ethyl)-N-(p-tolyl)benzamide], the half-inhibitory concentration (IC50) worked out at 54.2 ± 4.7 µM in assay [1] (Homo sapiens, MDA-MB-231, 48 h); 39.9 ± 2.7 µM in assay [2] (Homo sapiens, A549, 48 h); 50.1 ± 3.6 µM in assay [3].
As for `O=C(Nc1ccc([N+](=O)[O-])cc1)C(c1ccc(C(F)(F)F)cc1)N(C(=O)c1ccccc1I)c1ccccc1` (centres unmarked) [Compound 7, 2-Iodo-N-(2-((4-nitrophenyl)amino)-2-oxo-1-(4-(trifluoromethyl)phenyl)ethyl)-N-phenyl-benzamide], the IC50 in assay [1] (Homo sapiens, MDA-MB-231, 48 h) was found to be 28.2 ± 1.4 µM; in assay [2] (Homo sapiens, A549, 48 h), 20.6 ± 1.5 µM; in assay [3], 75.6 ± 5.8 µM.
Regarding `Cc1ccc(N(C(=O)c2ccccc2I)C(C(=O)Nc2ccc([N+](=O)[O-])cc2)c2ccc(C(F)(F)F)cc2)cc1` (centres unmarked) [Compound 8, 2-Iodo-N-(2-((4-nitrophenyl)amino)-2-oxo-1-(4-(trifluoromethyl)phenyl)ethyl)-N-(p-tolyl)-benzamide], the half-inhibitory concentration (IC50) in assay [1] (Homo sapiens, MDA-MB-231, 48 h) amounted to 27.1 ± 1.8 µM; in assay [2] (Homo sapiens, A549, 48 h), 20.5 ± 1.1 µM; in assay [3] it was 62.2 ± 4.2 µM.
As for `O=C(Nc1ccc([N+](=O)[O-])cc1)C(c1ccc(C(F)(F)F)cc1)N(C(=O)Cc1ccccc1)c1ccccc1` (centres unmarked) [Compound 9, 2-(N,2-Diphenylacetamido)-N-(4-nitrophenyl)-2-(4-(trifluoromethyl)phenyl)acetamide], the half-inhibitory concentration (IC50) in assay [1] (Homo sapiens, MDA-MB-231, 48 h) turned out to be 70.6 ± 6.1 µM; in assay [2] (Homo sapiens, A549, 48 h) it was 46.4 ± 2.8 µM; in assay [3], 71.6 ± 5.7 µM.
For `Cc1ccc(N(C(=O)Cc2ccccc2)C(C(=O)Nc2ccc([N+](=O)[O-])cc2)c2ccc(C(F)(F)F)cc2)cc1` (centres unmarked) [Compound 10, N-(4-Nitrophenyl)-2-(2-phenyl-N-(p-tolyl)acetamido)-2-(4-(trifluoromethyl)phenyl)-acetamide] the same measures were 84.4 ± 6.9 µM, 71.5 ± 6.8 µM and 83.3 ± 6.8 µM.
Regarding `O=C(NCC(=O)N(c1ccccc1)C(C(=O)Nc1ccc([N+](=O)[O-])cc1)c1ccc(C(F)(F)F)cc1)c1ccccc1` (centres unmarked) [Compound 11, N-(2-((2-((4-Nitrophenyl)amino)-2-oxo-1-(4-(trifluoromethyl)phenyl)ethyl)(phenyl)amino)-2-oxoethyl)benzamide], the IC50 was 60.2 ± 4.9 µM in assay [1] (Homo sapiens, MDA-MB-231, 48 h); 53.9 ± 4.4 µM in assay [2] (Homo sapiens, A549, 48 h); 82.1 ± 7.3 µM in assay [3].
`Cc1ccc(N(C(=O)CNC(=O)c2ccccc2)C(C(=O)Nc2ccc([N+](=O)[O-])cc2)c2ccc(C(F)(F)F)cc2)cc1` (centres unmarked) [Compound 12, N-(2-((2-((4-Nitrophenyl)amino)-2-oxo-1-(4-(trifluoromethyl)phenyl)ethyl)(p-tolyl)amino)-2-oxoethyl)benzamide]: the IC50 in assay [1] (Homo sapiens, MDA-MB-231, 48 h) was 65.3 ± 4.7 µM; in assay [2] (Homo sapiens, A549, 48 h), 73.1 ± 6.6 µM; in assay [3], 98.2 ± 8.1 µM.
For `O=C(Nc1ccc([N+](=O)[O-])cc1)C(c1ccc(C(F)(F)F)cc1)N(C(=O)CNS(=O)(=O)c1ccccc1)c1ccccc1` (centres unmarked) [Compound 13, N-(4-Nitrophenyl)-2-(N-phenyl-2-(phenylsulfonamido)acetamido)-2-(4-(trifluoromethyl)-phenyl)acetamide], the IC50 in assay [1] (Homo sapiens, MDA-MB-231, 48 h) stood at 73.9 ± 5.3 µM; in assay [2] (Homo sapiens, A549, 48 h), 64.1 ± 5.9 µM; in assay [3], 98.5 ± 7.4 µM.
For `Cc1ccc(N(C(=O)CNS(=O)(=O)c2ccccc2)C(C(=O)Nc2ccc([N+](=O)[O-])cc2)c2ccc(C(F)(F)F)cc2)cc1` (centres unmarked) [Compound 14, N-(4-Nitrophenyl)-2-(2-(phenylsulfonamido)-N-(p-tolyl)acetamido)-2-(4-(trifluoromethyl)-phenyl)acetamide], the IC50 in assay [1] (Homo sapiens, MDA-MB-231, 48 h) was 74.8 ± 6.1 µM; in assay [2] (Homo sapiens, A549, 48 h) it was 55.3 ± 4.2 µM; in assay [3], 84.7 ± 6.9 µM.
Turning to `O=C(Nc1ccc([N+](=O)[O-])cc1)C(c1ccc(C(F)(F)F)cc1)N(Cc1ccccc1)C(=O)Cc1ccccc1` (centres unmarked) [Compound 15, N-Benzyl-N-(2-((4-nitrophenyl)amino)-2-oxo-1-(4-(trifluoromethyl)phenyl)-ethyl)-2-phenyl-acetamide], the IC50 in assay [1] (Homo sapiens, MDA-MB-231, 48 h) came out at 65.7 ± 5.4 µM; in assay [2] (Homo sapiens, A549, 48 h), 61.1 ± 4.5 µM; in assay [3] it was 69.4 ± 4.7 µM.
For `O=C(NCC(=O)N(Cc1ccccc1)C(C(=O)Nc1ccc([N+](=O)[O-])cc1)c1ccc(C(F)(F)F)cc1)c1ccccc1` (centres unmarked) [Compound 16, N-(2-(Benzyl(2-((4-nitrophenyl)amino)-2-oxo-1-(4-(trifluoromethyl)phenyl)ethyl)amino)-2-oxoethyl)benzamide], the IC50 worked out at 27.3 ± 1.5 µM in assay [1] (Homo sapiens, MDA-MB-231, 48 h); 22.4 ± 0.8 µM in assay [2] (Homo sapiens, A549, 48 h); 63.8 ± 4.8 µM in assay [3].
On the same counts, the results for `O=C(Nc1ccc([N+](=O)[O-])cc1)C(c1ccc(C(F)(F)F)cc1)N(Cc1ccccc1)C(=O)CNS(=O)(=O)c1ccccc1` (centres unmarked) [Compound 17, N-Benzyl-N-(2-((4-nitrophenyl)amino)-2-oxo-1-(4-(trifluoromethyl)phenyl)ethyl)-2-(phenylsulfonamido)acetamide] are 57 ± 4.8 µM, 40.8 ± 2.8 µM and 50.2 ± 3.4 µM.
As for `O=C(Nc1ccc([N+](=O)[O-])cc1)C(c1ccc(C(F)(F)F)cc1)N(C(=O)c1ccc2ccccc2n1)c1ccccc1` (centres unmarked) [Compound 18, N-(2-((4-Nitrophenyl)amino)-2-oxo-1-(4-(trifluoromethyl)phenyl)ethyl)-N-phenylquinoline-2-carboxamide], the IC50 in assay [1] (Homo sapiens, MDA-MB-231, 48 h) was 25.1 ± 1.9 µM; in assay [2] (Homo sapiens, A549, 48 h) it was 20.1 ± 1.4 µM; in assay [3], 55.7 ± 3.5 µM.
Regarding `Cc1ccc(N(C(=O)c2ccc3ccccc3n2)C(C(=O)Nc2ccc([N+](=O)[O-])cc2)c2ccc(C(F)(F)F)cc2)cc1` (centres unmarked) [Compound 19, N-(2-((4-Nitrophenyl)amino)-2-oxo-1-(4-(trifluoromethyl)phenyl)ethyl)-N-(p-tolyl)-quinoline-2-carboxamide], the half-maximal inhibitory concentration (IC50) in assay [1] (Homo sapiens, MDA-MB-231, 48 h) stood at 73.1 ± 5.7 µM; in assay [2] (Homo sapiens, A549, 48 h) it was 46.2 ± 4.1 µM; in assay [3], 50.1 ± 3.3 µM.
`O=C(Nc1ccc([N+](=O)[O-])cc1)C(c1ccccc1)N(C(=O)/C=C/c1ccc(C(F)(F)F)cc1)c1ccccc1` (centres unmarked) [Compound 23, (E)-N-(2-((4-Nitrophenyl)amino)-2-oxo-1-phenylethyl)-N-phenyl-3-(4-(trifluoromethyl)-phenyl)acrylamide]: the IC50 amounted to 30.3 ± 2.4 µM in assay [1] (Homo sapiens, MDA-MB-231, 48 h); 26.1 ± 2.1 µM in assay [2] (Homo sapiens, A549, 48 h); 30.9 ± 2.3 µM in assay [3].
With `Cc1ccc(N(C(=O)/C=C/c2ccc(C(F)(F)F)cc2)C(C(=O)Nc2ccc([N+](=O)[O-])cc2)c2ccccc2)cc1` (centres unmarked) [Compound 24, (E)-N-(2-((4-Nitrophenyl)amino)-2-oxo-1-phenylethyl)-N-(p-tolyl)-3-(4-(trifluoromethyl)-phenyl)acrylamide], the IC50 in assay [1] (Homo sapiens, MDA-MB-231, 48 h) worked out at 22.1 ± 1.6 µM; in assay [2] (Homo sapiens, A549, 48 h), 20.4 ± 1.7 µM; in assay [3], 54.2 ± 4.1 µM.
Consider `O=C(Nc1ccc([N+](=O)[O-])cc1)C(c1ccccc1)N(Cc1ccccc1)C(=O)/C=C/c1ccc(C(F)(F)F)cc1` (centres unmarked) [Compound 25, (E)-N-Benzyl-N-(2-((4-nitrophenyl)amino)-2-oxo-1-phenylethyl)-3-(4-(trifluoromethyl)-phenyl)acrylamide], for which the IC50 in assay [1] (Homo sapiens, MDA-MB-231, 48 h) is 95.4 ± 8.1 µM; in assay [2] (Homo sapiens, A549, 48 h), 90.2 ± 8.5 µM; in assay [3] it was 129 ± 8.7 µM.
